Measured values taken from patent US10479819B2 (priority 2014, dated 2019).
Starred links: 1 amine or outer side, 2 acyl side, 3 side chain; linkers in the order of their positions; H or OH if unused. Non-standard residues stand in square brackets, D forms with d. Residues, ends and D or L forms follow the SMILES beside them. Groups on a side chain read outwards from the residue. *: point of attachment. C18 diacid = O=C(O)CCCCCCCCCCCCCCCCC(=O)*; γGlu = O=C(O)[C@H](CCC(=O)[*:2])N[*:1]; PEG2 = NCCOCCOCCC(=O)O

Key:
human GLP-1R = target: T1, human GLP-1R (Homo sapiens, UniProt P43220); assay: In vitro activity on GLP-1R, CRE-luciferase HEK-293 cells; type: cell-based; conditions: for GLP-1R/GCGR: ratio of EC50 GLP-1R to EC50 GCGR
T1 construct: expressed in transfected cells
Procedure: (§1) 5000 of HEK-293 cells, which are used in CRE-luciferase system and express human GCGR or GLP-1R stably, were inoculated into 384 well plates according to […] DMEM/10% FBS media/well. […] After incubation, […] of luciferase reagent was added directly to each plate and mixed gently for 2 minutes. The plates were placed into an Elmer Perkin plate reader for reading. Concentration curve of the compound was made by drawing software Prism 5, and the EC50 value was calculated.

[1] = Pharmacokinetic analysis after IV or SC administration in male CD1 mice; conditions: for Tmax / half-life: iv; for peak time: sc
Procedure: Pharmacokinetic parameters of the drugs were calculated by methods of model dependence (for data obtained from IV) and model independence (data obtained from SC).

male C57B1/6J mice = assay: Oral glucose tolerance test in male C57B1/6J mice; type: in vivo; conditions: 250 μg/kg; for AUC of blood glucose in all four OGTT curve periods (0-480 min) compared with carrier (PBS): P<0.05; for effect on oral glucose tolerance: male C57B1/6J mice
Procedure: 12-16 week-old male C57B1/6J mice (Nanjing University model animal research center) were randomly divided into groups 8 in each group, according to similar blood glucose (assessed by the blood samples obtained from the tail tip). After fasting (for 6 hours), the animals were administrated, and about 4 hours later, initial blood samples (fasting blood glucose level) were taken. Subsequently, the animals were administrated with an oral dose of glucose, and then put back into their cages (t=0). Blood glucose was measured at t=15 minutes, t=30 minutes, t=60 minutes, t=90 minutes and t=120 minutes. And then the animals were administrated with an oral dose of glucose again, and blood glucose was tracked until 8 hours.

DIO mice = assay: Body weight reduction in DIO (obese) mice; type: in vivo; conditions: 250 μg/kg SC daily, day 11 to day 30, DIO mice; for body weight compared with normal saline group: P<0.05
From the text: Forty 25-week-old DIO mice (Nanjing University model animal research center) were randomly divided into five groups (compound 4, 5, 6, 7, and normal saline group), 8 in each group, having no difference in the basis weight of each group.

human GCGR = target: T2, human GCGR (Homo sapiens, UniProt P47871); assay: In vitro activity on GCGR, CRE-luciferase HEK-293 cells; type: cell-based; conditions: read-out: GCGR (EC50)
T2 construct: expressed in transfected cells
Procedure: as §1

T1 sequence (P43220 24-463): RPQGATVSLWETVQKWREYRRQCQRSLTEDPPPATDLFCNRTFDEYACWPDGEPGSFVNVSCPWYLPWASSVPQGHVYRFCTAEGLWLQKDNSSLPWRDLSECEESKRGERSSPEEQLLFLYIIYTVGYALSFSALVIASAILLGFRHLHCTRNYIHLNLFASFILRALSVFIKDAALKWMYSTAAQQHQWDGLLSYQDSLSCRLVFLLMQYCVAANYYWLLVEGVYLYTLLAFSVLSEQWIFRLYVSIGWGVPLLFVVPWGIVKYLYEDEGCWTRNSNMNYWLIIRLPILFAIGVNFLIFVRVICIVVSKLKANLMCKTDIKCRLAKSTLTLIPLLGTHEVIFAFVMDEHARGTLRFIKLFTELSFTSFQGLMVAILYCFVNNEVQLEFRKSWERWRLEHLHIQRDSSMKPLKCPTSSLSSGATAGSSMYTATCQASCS
T2 sequence (P47871 26-477): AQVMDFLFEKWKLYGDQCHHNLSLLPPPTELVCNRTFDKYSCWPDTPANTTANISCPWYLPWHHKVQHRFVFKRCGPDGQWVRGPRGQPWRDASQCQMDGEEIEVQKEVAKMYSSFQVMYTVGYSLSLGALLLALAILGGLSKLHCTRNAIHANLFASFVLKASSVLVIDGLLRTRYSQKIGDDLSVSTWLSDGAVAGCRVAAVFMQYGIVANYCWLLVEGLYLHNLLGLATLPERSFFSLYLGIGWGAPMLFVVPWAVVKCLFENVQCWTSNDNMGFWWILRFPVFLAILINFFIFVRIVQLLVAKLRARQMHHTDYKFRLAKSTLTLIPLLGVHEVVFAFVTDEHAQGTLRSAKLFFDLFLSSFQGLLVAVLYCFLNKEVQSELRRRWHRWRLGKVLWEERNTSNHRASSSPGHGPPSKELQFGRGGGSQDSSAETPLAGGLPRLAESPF

| Compound | EC50 (human GLP-1R) [nM] | GLP-1R/GCGR (human GLP-1R) | clinical adverse effect ([1]; IV or SC route, male CD1 mice) | Tmax ([1]; mouse, in vivo) [h] | half-life ([1]; mouse, in vivo) [h] | AUC of blood glucose in all four OGTT curve periods (0-480 min) compared with carrier (PBS) (male C57B1/6J mice) | effect on oral glucose tolerance (male C57B1/6J mice) | weight loss (DIO mice) | body weight compared with normal saline group (DIO mice) | clinical adverse effect ([1]; mouse, in vivo) | peak time ([1]; mouse, in vivo) | EC50 (human GCGR) [nM] |
| --- | --- | --- | --- | --- | --- | --- | --- | --- | --- | --- | --- | --- |
| CC[C@H](C)[C@H](NC(=O)[C@H](Cc1ccccc1)NC(=O)[C@H](CCC(=O)O)NC(=O)[C@H](CCCCNC(=O)CCOCCOCCNC(=O)CCOCCOCCNC(=O)CC[C@H](NC(=O)CCCCCCCCCCCCCCCCC(=O)O)C(=O)O)NC(=O)[C@H](C)NC(=O)[C@H](C)NC(=O)[C@H](CCCCN)NC(=O)[C@H](CCC(=O)O)NC(=O)[C@H](CC(=O)O)NC(=O)[C@H](CC(C)C)NC(=O)[C@H](Cc1ccc(O)cc1)NC(=O)[C@H](CCCCN)NC(=O)[C@H](CO)NC(=O)[C@H](Cc1ccc(O)cc1)NC(=O)[C@H](CC(=O)O)NC(=O)[C@H](CO)NC(=O)[C@@H](NC(=O)[C@H](Cc1ccccc1)NC(=O)[C@@H](NC(=O)CNC(=O)[C@H](CCC(N)=O)NC(=O)[C@@H](CO)NC(=O)[C@@H](N)Cc1c[nH]cn1)[C@@H](C)O)[C@@H](C)O)C(=O)N[C@@H](CCC(=O)O)C(=O)N[C@@H](Cc1c[nH]c2ccccc12)C(=O)N[C@@H](CC(C)C)C(=O)N[C@@H](CC(C)C)C(=O)N[C@@H](CC(N)=O)C(=O)NCC(=O)NCC(=O)N1CCC[C@H]1C(=O)N[C@@H](CO)C(=O)N[C@@H](CO)C(=O)NCC(=O)N[C@@H](C)C(=O)N1CCC[C@H]1C(=O)N1CCC[C@H]1C(=O)N1CCC[C@H]1C(=O)N[C@@H](CO)C(N)=O [Compound 4] (H-H[dS]QGTFTSDYSKYLDEKAAK([PEG2-PEG2-γGlu-C18 diacid])EFIEWLLNGGPSSGAPPPS-NH2) | 0.13 | 0.3 | no clinical adverse effect | ~12 | 4 to 6 | significantly decreased | significantly reduced the oral glucose tolerance | about 20% | significantly lower |  |  |  |
| CSCC[C@H](NC(=O)[C@H](CC(C)C)NC(=O)[C@H](Cc1c[nH]c2ccccc12)NC(=O)[C@H](CCC(N)=O)NC(=O)[C@@H](NC(=O)[C@H](Cc1ccccc1)NC(=O)[C@H](CC(=O)O)NC(=O)[C@H](CCC(N)=O)NC(=O)[C@H](C)NC(=O)[C@H](CCCNC(=N)N)NC(=O)[C@H](CCCNC(=N)N)NC(=O)C(C)(C)NC(=O)[C@H](CC(=O)O)NC(=O)[C@H](CC(C)C)NC(=O)[C@H](Cc1ccc(O)cc1)NC(=O)[C@H](CCCCN)NC(=O)[C@H](CO)NC(=O)[C@H](CCCCNC(=O)CCOCCOCCNC(=O)CCOCCOCCNC(=O)CCCCCCCCCCCCCCCCC(=O)O)NC(=O)[C@H](CC(=O)O)NC(=O)[C@H](CO)NC(=O)[C@@H](NC(=O)[C@H](Cc1ccccc1)NC(=O)[C@@H](NC(=O)CNC(=O)[C@H](CCC(N)=O)NC(=O)[C@@H](CO)NC(=O)[C@@H](N)Cc1c[nH]cn1)[C@@H](C)O)[C@@H](C)O)C(C)C)C(=O)N[C@@H](CC(N)=O)C(=O)N[C@H](C(=O)NCC(=O)NCC(=O)N1CCC[C@H]1C(=O)N[C@@H](CO)C(=O)N[C@@H](CO)C(=O)NCC(=O)N[C@@H](C)C(=O)N1CCC[C@H]1C(=O)N1CCC[C@H]1C(=O)N1CCC[C@H]1C(=O)N[C@@H](CO)C(N)=O)[C@@H](C)O [Compound 6] |  | 0.3 |  | ~12 | 4 to 6 | significantly decreased | significantly reduced the oral glucose tolerance | about 20% | significantly lower | no clinical adverse effect | more than 12 hours |  |
| CCCCCCCCCCCCCCCC(=O)N[C@@H](CCC(=O)NCCOCCOCCC(=O)NCCOCCOCCC(=O)NCCCC[C@H](NC(=O)[C@H](CC(=O)O)NC(=O)[C@H](CO)NC(=O)[C@@H](NC(=O)[C@H](Cc1ccccc1)NC(=O)[C@@H](NC(=O)CNC(=O)[C@H](CCC(N)=O)NC(=O)[C@@H](CO)NC(=O)[C@@H](N)Cc1c[nH]cn1)[C@@H](C)O)[C@@H](C)O)C(=O)N[C@@H](CO)C(=O)N[C@@H](CCCCN)C(=O)N[C@@H](Cc1ccc(O)cc1)C(=O)N[C@@H](CC(C)C)C(=O)N[C@@H](CC(=O)O)C(=O)NC(C)(C)C(=O)N[C@@H](CCCNC(=N)N)C(=O)N[C@@H](CCCNC(=N)N)C(=O)N[C@@H](C)C(=O)N[C@@H](CCC(N)=O)C(=O)N[C@@H](CC(=O)O)C(=O)N[C@@H](Cc1ccccc1)C(=O)N[C@H](C(=O)N[C@@H](CCC(N)=O)C(=O)N[C@@H](Cc1c[nH]c2ccccc12)C(=O)N[C@@H](CC(C)C)C(=O)N[C@@H](CCSC)C(=O)N[C@@H](CC(N)=O)C(=O)N[C@H](C(=O)NCC(=O)NCC(=O)N1CCC[C@H]1C(=O)N[C@@H](CO)C(=O)N[C@@H](CO)C(=O)NCC(=O)N[C@@H](C)C(=O)N1CCC[C@H]1C(=O)N1CCC[C@H]1C(=O)N1CCC[C@H]1C(=O)N[C@@H](CO)C(N)=O)[C@@H](C)O)C(C)C)C(=O)O [Compound 7] |  |  |  | ~12 | 4 to 6 | significantly decreased | significantly reduced the oral glucose tolerance | about 20% | significantly lower | no clinical adverse effect | more than 12 hours |  |
| CSCC[C@H](NC(=O)[C@H](CC(C)C)NC(=O)[C@H](Cc1c[nH]c2ccccc12)NC(=O)[C@H](CCC(N)=O)NC(=O)[C@@H](NC(=O)[C@H](Cc1ccccc1)NC(=O)[C@H](CC(=O)O)NC(=O)[C@H](CCC(N)=O)NC(=O)[C@H](C)NC(=O)[C@H](CCCNC(=N)N)NC(=O)[C@H](CCCNC(=N)N)NC(=O)C(C)(C)NC(=O)[C@H](CC(=O)O)NC(=O)[C@H](CC(C)C)NC(=O)[C@H](Cc1ccc(O)cc1)NC(=O)[C@H](CCCCN)NC(=O)[C@H](CO)NC(=O)[C@H](CCCCNC(=O)CCOCCOCCNC(=O)CCOCCOCCNC(=O)CC[C@H](NC(=O)CCCCCCCCCCCCCCCCC(=O)O)C(=O)O)NC(=O)[C@H](CC(=O)O)NC(=O)[C@H](CO)NC(=O)[C@@H](NC(=O)[C@H](Cc1ccccc1)NC(=O)[C@@H](NC(=O)CNC(=O)[C@H](CCC(N)=O)NC(=O)[C@@H](CO)NC(=O)[C@@H](N)Cc1c[nH]cn1)[C@@H](C)O)[C@@H](C)O)C(C)C)C(=O)N[C@@H](CC(N)=O)C(=O)N[C@H](C(=O)NCC(=O)NCC(=O)N1CCC[C@H]1C(=O)N[C@@H](CO)C(=O)N[C@@H](CO)C(=O)NCC(=O)N[C@@H](C)C(=O)N1CCC[C@H]1C(=O)N1CCC[C@H]1C(=O)N1CCC[C@H]1C(=O)N[C@@H](CO)C(N)=O)[C@@H](C)O [Compound 8] |  | 1.1 |  |  |  |  |  |  |  |  |  | 0.18 |
| CSCC[C@H](NC(=O)[C@H](CC(C)C)NC(=O)[C@H](Cc1c[nH]c2ccccc12)NC(=O)[C@H](CCC(N)=O)NC(=O)[C@@H](NC(=O)[C@H](Cc1ccccc1)NC(=O)[C@H](CC(=O)O)NC(=O)[C@H](CCC(N)=O)NC(=O)[C@H](C)NC(=O)[C@H](CCCNC(=N)N)NC(=O)[C@H](CCCNC(=N)N)NC(=O)[C@H](CCCCNC(=O)CCOCCOCCNC(=O)CCOCCOCCNC(=O)CCCCCCCCCCCCCCCCC(=O)O)NC(=O)[C@H](CC(=O)O)NC(=O)[C@H](CC(C)C)NC(=O)[C@H](Cc1ccc(O)cc1)NC(=O)[C@H](CCCCN)NC(=O)[C@H](CO)NC(=O)[C@H](Cc1ccc(O)cc1)NC(=O)[C@H](CC(=O)O)NC(=O)[C@H](CO)NC(=O)[C@@H](NC(=O)[C@H](Cc1ccccc1)NC(=O)[C@@H](NC(=O)CNC(=O)[C@H](CCC(N)=O)NC(=O)[C@@H](CO)NC(=O)[C@@H](N)Cc1c[nH]cn1)[C@@H](C)O)[C@@H](C)O)C(C)C)C(=O)N[C@@H](CC(N)=O)C(=O)N[C@H](C(=O)NCC(=O)NCC(=O)N1CCC[C@H]1C(=O)N[C@@H](CO)C(=O)N[C@@H](CO)C(=O)NCC(=O)N[C@@H](C)C(=O)N1CCC[C@H]1C(=O)N1CCC[C@H]1C(=O)N1CCC[C@H]1C(=O)N[C@@H](CO)C(N)=O)[C@@H](C)O [Compound 9] |  | 2.9 |  |  |  |  |  |  |  |  |  | 0.18 |
